Source: patent US11572540B2, “Method for inducing oligodendrocyte precursor cells from OCT4-induced human somatic cells through direct reprogramming” (Stemlab Inc., priority 2015, dated 2023)

System: Oct4-introduced Sox10::eGFP fibroblasts
Experiment: FACS analysis of Sox10::eGFP reporter expression after low molecular weight substance treatment
Assay type: cell-based, human
Details: 10 μM forskolin added to ATVP medium
Text: The inventors have established conditions capable of inducing neural stem cells from mouse cells only with a low molecular weight substance without gene introduction (KR 10-1357402). Accordingly, to establish new conditions capable of inducing human somatic cells into OPCs on the basis of the low molecular weight substance that had been established in the previous study, a low molecular weight substance was selected using a Sox10 reporter system (Sox10::eGFP), which is a gene known to be important in development of oligodendrocytes (FIG. 1). When Oct4 gene-introduced cells were cultured in a reprogramming medium (RM: DMEM with high Glucose+5% knock out serum replacement (KSR)+1% penicillin/streptomycin+1% non-essential amino acids+20 ng/ml basic FGF (bFGF)+20 ng/ml human recombinant platelet derived growth factor (PDGF)+50 μg/ml ascorbic acid), one week after induction, it was confirmed that a cell length was shorter and a cell size was smaller through mesenchymal to epithelial transition (MET), thereby forming an epithelial-like colony. […]

C=C[C@@]1(C)CC(=O)[C@]2(O)[C@@]3(C)[C@@H](O)CCC(C)(C)[C@@H]3[C@H](O)[C@H](OC(C)=O)[C@@]2(C)O1 [forskolin]
Sox10::eGFP expression (GFP+ distribution, FACS): 3.31%
